Measured values published in patent publication US10967031B2, “Synergistic herbal compositions with prebiotic properties for treatment of skin infections, allergies and inflammation” (priority 2010, dated 2021).
Read-outs that look alike come from different tables or passages of the source.

Tested on: IL-13 release from KU812 cells
Experiment: IL-13 release assay in KU812 cells (PMA + ionomycin, IL-13 ELISA)
Assay type: cell-based, human

Row | Structure (SMILES) | inhibition at 10 µM (Homo sapiens, positive control 10 μM, read-out: Percentages of IL-13 inhibition) [%] | inhibition at 1 µM (Homo sapiens, 1 μM, read-out: Percentages of IL-13 inhibition) [%] | inhibition at 10 µM (Homo sapiens, 10 μM (Fistein), read-out: Percentages of IL-13 inhibition) [%] | inhibition at 100 µM (Homo sapiens, 100 μM, read-out: Percentages of IL-13 inhibition) [%] | IL-13 release / inhibition, in words (first screening (Examples 1 and 3))
1 | C[C@@H]1C[C@H]2[C@@H]3CCC4=CC(=O)C=C[C@]4(C)[C@@]3(F)[C@@H](O)C[C@]2(C)[C@@]1(O)C(=O)CO [Dexamethasone] | 52 |  |  |  | 
2 | O=c1c(O)c(-c2ccc(O)c(O)c2)oc2cc(O)ccc12 [Fistein, Fisetin] |  | 26.5 | 17.3 | 35.7 | the inhibition percentages were relatively low
